From ChEMBL document CHEMBL3885861, “Open TG-GATES”

Organism: Rattus norvegicus
Test: Open TG-GATES - Regimen: Single
Assay type: toxicity, organism-based, Sprague-Dawley
Set-up: regimen Single, gender Male, age 6 weeks
Details: in vivo, po, route gavage; for TC / TG / TP / gamma-GTP / A/G / ALP / ALT / AST / BUN / CRE / Ca / Cl / GLC / IP / K / LDH / Na / PL / RALB: tissue Plasma; for APTT / Bas / Eos / Fbg / Hb / Ht / Lym / MCH / MCHC / MCV / Mono / Neu / PT / Plat / RBC / Ret / WBC: tissue Blood; for KIDNEY_L / KIDNEY_R / KIDNEY_TOTAL: tissue Kidney; for LIVER: tissue Liver
[1] = 300 mg/kg, 24 h, dose level Low
[2] = 1000 mg/kg, 3 h, dose level Middle
[3] = 1000 mg/kg, 6 h, dose level Middle
[4] = 1000 mg/kg, 9 h, dose level Middle
[5] = 1000 mg/kg, 24 h, dose level Middle
[6] = 2000 mg/kg, 3 h, dose level High
[7] = 2000 mg/kg, 6 h, dose level High
[8] = 2000 mg/kg, 9 h, dose level High
[9] = 2000 mg/kg, 24 h, dose level High

## O=C(O)c1ccccc1Nc1ccccc1 [FENAMIC ACID]
[1]
  TC: 74.8 mg/dL
  TG: 88 mg/dL
  TP: 5.6 g/dL
  gamma-GTP: 1 IU/L
[2]
  TERMINAL_BW: 208.9 g
  APTT: 17.2 s
  Bas: 0.8%
  Eos: 0.6%
  Fbg: 253.8 mg/dL
  Hb: 13.4 g/dL
  Ht: 40.2%
  Lym: 71.4%
  MCH: 20.5 pg
  MCHC: 33.5%
  MCV: 61.1 fL
  Mono: 2.8%
  Neu: 24.4%
  PT: 14.1 s
  Plat: 115 x10_4/uL
  RBC: 657.4 x10_4/ul
  Ret: 8%
  WBC: 93.3 x10_2/uL
  KIDNEY_L: 0.9 g
  KIDNEY_R: 0.9 g
  KIDNEY_TOTAL: 1.8 g
  LIVER: 7.8 g
  A/G: 0.9
  ALP: 1837.8 IU/L
  ALT: 38.4 IU/L
  AST: 75.4 IU/L
  BUN: 9.6 mg/dL
  CRE: 0.1 mg/dL
  Ca: 11 mg/dL
  Cl: 105.2 meq/L
  GLC: 169.2 mg/dL
  IP: 10.3 mg/dL
  K: 4 meq/L
  LDH: 71.8 IU/L
  Na: 144 meq/L
  PL: 96.4 mg/dL
  RALB: 2.5 g/dL
  TC: 49 mg/dL
  TG: 37 mg/dL
  TP: 5.4 g/dL
  gamma-GTP: 1 IU/L
[3]
  TERMINAL_BW: 203 g
  APTT: 17 s
  Bas: 0.8%
  Eos: 1%
  Fbg: 286.4 mg/dL
  Hb: 13.7 g/dL
  Ht: 40.4%
  Lym: 66.6%
  MCH: 21.2 pg
  MCHC: 34%
  MCV: 62.4 fL
  Mono: 3.2%
  Neu: 28.8%
  PT: 14.4 s
  Plat: 112.9 x10_4/uL
  RBC: 646.6 x10_4/ul
  Ret: 7.7%
  WBC: 98.8 x10_2/uL
  KIDNEY_L: 0.9 g
  KIDNEY_R: 0.9 g
  KIDNEY_TOTAL: 1.8 g
  LIVER: 7.4 g
  A/G: 0.9
  ALP: 1734.6 IU/L
  ALT: 37 IU/L
  AST: 77.6 IU/L
  BUN: 11.4 mg/dL
  CRE: 0.1 mg/dL
  Ca: 11.1 mg/dL
  Cl: 107 meq/L
  GLC: 128.4 mg/dL
  IP: 10.8 mg/dL
  K: 3.9 meq/L
  LDH: 73.4 IU/L
  Na: 146.2 meq/L
  PL: 105.6 mg/dL
  RALB: 2.7 g/dL
  TC: 53 mg/dL
  TG: 37 mg/dL
  TP: 5.8 g/dL
  gamma-GTP: 1.2 IU/L
[4]
  TERMINAL_BW: 207.8 g
  APTT: 14.8 s
  Bas: 0.4%
  Eos: 0.8%
  Fbg: 281 mg/dL
  Hb: 13.9 g/dL
  Ht: 41.1%
  Lym: 61.8%
  MCH: 21.2 pg
  MCHC: 33.8%
  MCV: 62.8 fL
  Mono: 3%
  Neu: 33.8%
  PT: 14.6 s
  Plat: 111.6 x10_4/uL
  RBC: 655.6 x10_4/ul
  Ret: 8.2%
  WBC: 80.5 x10_2/uL
  KIDNEY_L: 1 g
  KIDNEY_R: 0.9 g
  KIDNEY_TOTAL: 1.9 g
  LIVER: 7.4 g
  A/G: 0.9
  ALP: 1965.8 IU/L
  ALT: 44.6 IU/L
  AST: 75.4 IU/L
  BUN: 13.8 mg/dL
  CRE: 0.1 mg/dL
  Ca: 11.1 mg/dL
  Cl: 107.8 meq/L
  GLC: 142 mg/dL
  IP: 10.9 mg/dL
  K: 4 meq/L
  LDH: 68.6 IU/L
  Na: 146.2 meq/L
  PL: 102.8 mg/dL
  RALB: 2.6 g/dL
  TC: 45.8 mg/dL
  TG: 29 mg/dL
  TP: 5.7 g/dL
  gamma-GTP: 1 IU/L
[5]
  TERMINAL_BW: 210.6 g
  APTT: 14.3 s
  Bas: 0.8%
  Eos: 0.8%
  Fbg: 388 mg/dL
  Hb: 13.5 g/dL
  Ht: 40.1%
  Lym: 70.6%
  MCH: 21.3 pg
  MCHC: 33.8%
  MCV: 62.9 fL
  Mono: 3%
  Neu: 24.8%
  PT: 15 s
  Plat: 114.1 x10_4/uL
  RBC: 637.8 x10_4/ul
  Ret: 7.1%
  WBC: 120.4 x10_2/uL
  KIDNEY_L: 1 g
  KIDNEY_R: 1 g
  KIDNEY_TOTAL: 2 g
  LIVER: 8.4 g
  A/G: 0.9
  ALP: 2284.2 IU/L
  ALT: 41.2 IU/L
  AST: 66 IU/L
  BUN: 16.4 mg/dL
  CRE: 0.2 mg/dL
  Ca: 11.4 mg/dL
  Cl: 106.2 meq/L
  GLC: 164.6 mg/dL
  IP: 8.5 mg/dL
  K: 3.7 meq/L
  LDH: 142 IU/L
  Na: 145.4 meq/L
  PL: 104.6 mg/dL
  RALB: 2.6 g/dL
  TC: 47.4 mg/dL
  TG: 46.2 mg/dL
  TP: 5.6 g/dL
  gamma-GTP: 1 IU/L
[6]
  TERMINAL_BW: 207.1 g
  APTT: 15.4 s
  Bas: 0.8%
  Eos: 0.8%
  Fbg: 258.2 mg/dL
  Hb: 13.6 g/dL
  Ht: 39.9%
  Lym: 67.4%
  MCH: 20.6 pg
  MCHC: 34.1%
  MCV: 60.6 fL
  Mono: 3.2%
  Neu: 28%
  PT: 13.9 s
  Plat: 113.5 x10_4/uL
  RBC: 658.8 x10_4/ul
  Ret: 7.9%
  WBC: 76.3 x10_2/uL
  KIDNEY_L: 0.9 g
  KIDNEY_R: 0.9 g
  KIDNEY_TOTAL: 1.9 g
  LIVER: 7.7 g
  A/G: 0.9
  ALP: 1464.2 IU/L
  ALT: 41 IU/L
  AST: 75.6 IU/L
  BUN: 10.8 mg/dL
  CRE: 0.1 mg/dL
  Ca: 10.9 mg/dL
  Cl: 102.8 meq/L
  GLC: 181.8 mg/dL
  IP: 10.9 mg/dL
  K: 4.1 meq/L
  LDH: 88.2 IU/L
  Na: 143.4 meq/L
  PL: 93.4 mg/dL
  RALB: 2.6 g/dL
  TC: 52 mg/dL
  TG: 28.4 mg/dL
  TP: 5.5 g/dL
  gamma-GTP: 1.2 IU/L
[7]
  TERMINAL_BW: 206.9 g
  APTT: 15.5 s
  Bas: 0.8%
  Eos: 1%
  Fbg: 277.4 mg/dL
  Hb: 13.7 g/dL
  Ht: 40.6%
  Lym: 71.2%
  MCH: 21 pg
  MCHC: 33.6%
  MCV: 62.6 fL
  Mono: 3%
  Neu: 24%
  PT: 14.2 s
  Plat: 122.7 x10_4/uL
  RBC: 649.2 x10_4/ul
  Ret: 8.1%
  WBC: 106.2 x10_2/uL
  KIDNEY_L: 1 g
  KIDNEY_R: 1 g
  KIDNEY_TOTAL: 2 g
  LIVER: 7.4 g
  A/G: 0.9
  ALP: 1541.4 IU/L
  ALT: 36.4 IU/L
  AST: 76.2 IU/L
  BUN: 12 mg/dL
  CRE: 0.1 mg/dL
  Ca: 11.2 mg/dL
  Cl: 105.6 meq/L
  GLC: 133.2 mg/dL
  IP: 11.6 mg/dL
  K: 4 meq/L
  LDH: 92.8 IU/L
  Na: 145.4 meq/L
  PL: 105.2 mg/dL
  RALB: 2.6 g/dL
  TC: 49.8 mg/dL
  TG: 34.2 mg/dL
  TP: 5.6 g/dL
  gamma-GTP: 1 IU/L
[8]
  TERMINAL_BW: 209.9 g
  APTT: 21.5 s
  Bas: 0.6%
  Eos: 1%
  Fbg: 307.4 mg/dL
  Hb: 13.6 g/dL
  Ht: 39.9%
  Lym: 64.6%
  MCH: 20.7 pg
  MCHC: 34%
  MCV: 60.8 fL
  Mono: 3.2%
  Neu: 30.4%
  PT: 14.8 s
  Plat: 110.5 x10_4/uL
  RBC: 656.8 x10_4/ul
  Ret: 8.2%
  WBC: 93.3 x10_2/uL
  KIDNEY_L: 1 g
  KIDNEY_R: 0.9 g
  KIDNEY_TOTAL: 1.9 g
  LIVER: 7.5 g
  A/G: 0.9
  ALP: 1863.4 IU/L
  ALT: 41.8 IU/L
  AST: 82.2 IU/L
  BUN: 14.6 mg/dL
  CRE: 0.1 mg/dL
  Ca: 11.1 mg/dL
  Cl: 105.6 meq/L
  GLC: 144.6 mg/dL
  IP: 11.3 mg/dL
  K: 3.9 meq/L
  LDH: 80.8 IU/L
  Na: 145.6 meq/L
  PL: 105.8 mg/dL
  RALB: 2.7 g/dL
  TC: 45 mg/dL
  TG: 50.2 mg/dL
  TP: 5.7 g/dL
  gamma-GTP: 1 IU/L
[9]
  TERMINAL_BW: 211.9 g
  APTT: 15.6 s
  Bas: 1%
  Eos: 0.6%
  Fbg: 436 mg/dL
  Hb: 13.9 g/dL
  Ht: 40.7%
  Lym: 55.8%
  MCH: 20.5 pg
  MCHC: 34.1%
  MCV: 60.2 fL
  Mono: 3.4%
  Neu: 39%
  PT: 15.2 s
  Plat: 121.1 x10_4/uL
  RBC: 675.2 x10_4/ul
  Ret: 8.7%
  WBC: 138 x10_2/uL
  KIDNEY_L: 1 g
  KIDNEY_R: 1 g
  KIDNEY_TOTAL: 2 g
  LIVER: 8.4 g
  A/G: 0.8
  ALP: 2104 IU/L
  ALT: 41.6 IU/L
  AST: 62.2 IU/L
  BUN: 19.2 mg/dL
  CRE: 0.1 mg/dL
  Ca: 11.2 mg/dL
  Cl: 102.8 meq/L
  GLC: 145.8 mg/dL
  IP: 9.4 mg/dL
  K: 3.7 meq/L
  LDH: 131.8 IU/L
  Na: 141.2 meq/L
  PL: 91.4 mg/dL
  RALB: 2.6 g/dL
  TC: 38.2 mg/dL
  TG: 49.2 mg/dL
  TP: 5.7 g/dL
  gamma-GTP: 1 IU/L
